According to ChEMBL document CHEMBL5136990, “Histone deacetylase 6 inhibitors with blood-brain barrier penetration as a potential strategy for CNS-Disorders therapy” (Eur J Med Chem, 2022):

Tests used:
[1] = Inhibition of full-length recombinant human HDAC3/NcoR2 using RHKKAc peptide as substrate by fluorescence based assay
Histone deacetylase 1 [2] = biological target: T1, Histone deacetylase 1 (Homo sapiens, UniProt Q13547); assay: Inhibition of recombinant human HDAC1 using fluorogenic substrate
Histone deacetylase 2 [3] = biological target: T2, Histone deacetylase 2 (Homo sapiens, UniProt Q92769); assay: Inhibition of recombinant human HDAC2 using fluorogenic substrate
Histone deacetylase 3 = Histone deacetylase 3 (Homo sapiens, UniProt O15379); assay: Inhibition of recombinant human HDAC3 using fluorogenic substrate
[4] = biological target: T3, Polyamine deacetylase HDAC10 (Homo sapiens, UniProt Q969S8); assay: Inhibition of recombinant human HDAC10 using fluorogenic substrate
T3 sequence (Q969S8 whole entry): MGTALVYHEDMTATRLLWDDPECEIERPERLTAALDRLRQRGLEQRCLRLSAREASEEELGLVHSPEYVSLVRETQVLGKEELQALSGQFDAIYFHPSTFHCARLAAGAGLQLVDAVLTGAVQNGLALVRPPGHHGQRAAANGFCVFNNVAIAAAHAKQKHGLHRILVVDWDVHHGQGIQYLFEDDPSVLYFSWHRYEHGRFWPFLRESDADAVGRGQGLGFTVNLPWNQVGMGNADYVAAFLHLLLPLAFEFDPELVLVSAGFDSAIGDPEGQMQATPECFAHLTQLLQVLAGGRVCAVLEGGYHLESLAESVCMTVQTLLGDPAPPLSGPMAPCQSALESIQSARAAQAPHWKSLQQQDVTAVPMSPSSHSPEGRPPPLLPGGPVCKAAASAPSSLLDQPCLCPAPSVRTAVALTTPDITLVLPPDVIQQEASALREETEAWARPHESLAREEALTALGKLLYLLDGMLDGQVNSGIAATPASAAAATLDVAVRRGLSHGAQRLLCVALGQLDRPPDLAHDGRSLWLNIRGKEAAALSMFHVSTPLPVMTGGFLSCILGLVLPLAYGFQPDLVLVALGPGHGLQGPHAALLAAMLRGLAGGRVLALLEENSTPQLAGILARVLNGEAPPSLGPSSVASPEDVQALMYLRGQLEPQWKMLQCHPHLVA

Histone deacetylase 1 [5] = biological target: T1, Histone deacetylase 1; assay: Inhibition of HDAC1 (unknown origin)
Histone deacetylase 2 [6] = biological target: T2, Histone deacetylase 2; assay: Inhibition of HDAC2 (unknown origin)
[7] = biological target: T4, Protein deacetylase HDAC6 (Homo sapiens, UniProt Q9UBN7); assay: Inhibition of HDAC6 (unknown origin)
T4 sequence (Q9UBN7 whole entry): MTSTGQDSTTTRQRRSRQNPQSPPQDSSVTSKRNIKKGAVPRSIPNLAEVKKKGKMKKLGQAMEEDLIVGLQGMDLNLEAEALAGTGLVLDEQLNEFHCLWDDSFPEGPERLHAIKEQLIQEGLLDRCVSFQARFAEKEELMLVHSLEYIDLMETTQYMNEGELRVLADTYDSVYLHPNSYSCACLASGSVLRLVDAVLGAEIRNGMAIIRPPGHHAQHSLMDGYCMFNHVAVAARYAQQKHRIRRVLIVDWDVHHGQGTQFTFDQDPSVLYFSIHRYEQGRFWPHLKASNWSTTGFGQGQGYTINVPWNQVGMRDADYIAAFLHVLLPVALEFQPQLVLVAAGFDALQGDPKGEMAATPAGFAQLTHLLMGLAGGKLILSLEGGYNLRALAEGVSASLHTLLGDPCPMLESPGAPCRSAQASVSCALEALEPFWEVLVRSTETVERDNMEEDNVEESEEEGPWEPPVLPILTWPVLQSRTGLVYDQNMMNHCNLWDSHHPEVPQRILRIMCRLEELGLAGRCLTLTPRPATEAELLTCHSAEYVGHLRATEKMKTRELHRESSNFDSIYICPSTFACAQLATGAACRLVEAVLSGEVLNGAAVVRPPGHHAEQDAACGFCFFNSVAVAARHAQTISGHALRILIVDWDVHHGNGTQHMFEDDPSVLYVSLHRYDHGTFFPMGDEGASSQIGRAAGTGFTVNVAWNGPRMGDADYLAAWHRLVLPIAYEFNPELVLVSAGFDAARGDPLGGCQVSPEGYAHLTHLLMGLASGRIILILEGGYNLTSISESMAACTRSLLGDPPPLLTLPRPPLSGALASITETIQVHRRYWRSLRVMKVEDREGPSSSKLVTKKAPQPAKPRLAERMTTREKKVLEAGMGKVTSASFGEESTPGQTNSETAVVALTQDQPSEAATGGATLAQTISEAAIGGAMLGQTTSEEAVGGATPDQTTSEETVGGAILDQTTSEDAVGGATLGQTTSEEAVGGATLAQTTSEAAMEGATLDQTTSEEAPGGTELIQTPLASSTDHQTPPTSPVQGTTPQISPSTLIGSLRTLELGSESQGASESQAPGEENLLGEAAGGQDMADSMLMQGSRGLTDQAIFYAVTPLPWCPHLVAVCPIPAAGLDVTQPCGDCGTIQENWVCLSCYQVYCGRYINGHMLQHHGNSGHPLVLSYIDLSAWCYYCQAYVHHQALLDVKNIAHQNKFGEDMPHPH

[8] = biological target: cGMP-specific 3',5'-cyclic phosphodiesterase (Homo sapiens, UniProt O76074); assay: Inhibition of PDE5 (unknown origin)
[9] = biological target: High affinity cGMP-specific 3',5'-cyclic phosphodiesterase 9A (Homo sapiens, UniProt O76083); assay: Inhibition of PDE9 (unknown origin)
Chain of High affinity cGMP-specific 3',5'-cyclic phosphodiesterase 9A (O76083 whole entry): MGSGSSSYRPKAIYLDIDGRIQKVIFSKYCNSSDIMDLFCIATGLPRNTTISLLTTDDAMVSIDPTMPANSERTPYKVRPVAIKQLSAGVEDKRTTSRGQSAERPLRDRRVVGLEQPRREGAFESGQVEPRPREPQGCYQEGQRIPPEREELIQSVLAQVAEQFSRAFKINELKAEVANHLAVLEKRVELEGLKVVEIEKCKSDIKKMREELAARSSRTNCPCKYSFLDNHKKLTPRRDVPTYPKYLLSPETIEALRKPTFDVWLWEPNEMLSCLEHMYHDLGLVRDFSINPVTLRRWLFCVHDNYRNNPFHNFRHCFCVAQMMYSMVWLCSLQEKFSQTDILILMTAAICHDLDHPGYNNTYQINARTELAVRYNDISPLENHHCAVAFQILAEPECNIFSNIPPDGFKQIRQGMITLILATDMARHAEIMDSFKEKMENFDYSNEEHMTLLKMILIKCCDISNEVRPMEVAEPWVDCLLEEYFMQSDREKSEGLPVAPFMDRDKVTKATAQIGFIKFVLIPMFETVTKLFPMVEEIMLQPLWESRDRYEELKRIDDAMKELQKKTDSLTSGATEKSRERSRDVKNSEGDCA

T1 sequence (Q13547 whole entry): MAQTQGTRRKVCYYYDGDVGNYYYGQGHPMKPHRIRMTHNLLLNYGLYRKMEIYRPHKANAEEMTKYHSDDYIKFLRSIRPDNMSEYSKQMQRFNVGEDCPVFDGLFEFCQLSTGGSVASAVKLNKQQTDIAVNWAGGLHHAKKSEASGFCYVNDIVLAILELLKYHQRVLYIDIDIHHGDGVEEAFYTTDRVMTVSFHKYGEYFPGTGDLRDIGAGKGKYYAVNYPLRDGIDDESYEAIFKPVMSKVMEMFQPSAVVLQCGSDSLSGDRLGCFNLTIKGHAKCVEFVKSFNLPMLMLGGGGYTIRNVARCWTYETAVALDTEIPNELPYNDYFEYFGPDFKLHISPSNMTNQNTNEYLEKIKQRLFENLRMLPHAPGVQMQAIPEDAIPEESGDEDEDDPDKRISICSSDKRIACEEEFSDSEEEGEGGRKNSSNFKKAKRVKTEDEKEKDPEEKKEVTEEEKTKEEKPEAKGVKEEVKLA
T2 sequence (Q92769 whole entry): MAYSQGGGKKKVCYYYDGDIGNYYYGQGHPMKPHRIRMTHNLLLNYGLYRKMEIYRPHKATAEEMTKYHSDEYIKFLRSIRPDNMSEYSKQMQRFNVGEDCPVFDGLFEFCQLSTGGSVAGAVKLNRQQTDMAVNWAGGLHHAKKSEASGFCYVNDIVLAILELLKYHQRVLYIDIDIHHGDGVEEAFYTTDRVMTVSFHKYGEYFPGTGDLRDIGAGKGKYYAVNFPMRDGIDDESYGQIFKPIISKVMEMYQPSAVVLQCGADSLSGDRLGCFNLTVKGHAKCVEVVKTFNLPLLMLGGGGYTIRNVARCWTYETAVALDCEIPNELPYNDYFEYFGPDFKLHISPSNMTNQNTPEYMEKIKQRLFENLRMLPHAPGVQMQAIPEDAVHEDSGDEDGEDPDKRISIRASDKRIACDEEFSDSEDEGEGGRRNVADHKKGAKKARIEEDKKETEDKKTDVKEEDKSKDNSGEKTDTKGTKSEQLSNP
Chain of Histone deacetylase 3 (O15379 whole entry): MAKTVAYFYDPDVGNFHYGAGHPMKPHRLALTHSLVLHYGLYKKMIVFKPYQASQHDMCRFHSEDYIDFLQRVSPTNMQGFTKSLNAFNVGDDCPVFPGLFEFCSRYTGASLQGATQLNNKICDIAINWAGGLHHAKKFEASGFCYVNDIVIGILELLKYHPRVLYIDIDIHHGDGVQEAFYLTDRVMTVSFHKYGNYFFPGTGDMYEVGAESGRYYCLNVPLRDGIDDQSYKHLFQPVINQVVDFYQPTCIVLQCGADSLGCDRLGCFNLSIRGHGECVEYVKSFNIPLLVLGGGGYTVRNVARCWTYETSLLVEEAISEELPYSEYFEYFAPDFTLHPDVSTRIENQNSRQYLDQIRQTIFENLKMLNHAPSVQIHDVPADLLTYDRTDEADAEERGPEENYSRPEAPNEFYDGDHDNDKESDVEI

O=C(NO)c1ccc(CN2CCCc3cc(Cl)ccc32)cc1
IC50 [1]: 29.5 µM

CN(Cc1ccc(C(=O)NO)cc1[18F])CC12CC3CC(CC(C3)C1)C2
IC50 (Histone deacetylase 1 [2]): > 10 µM
IC50 (Histone deacetylase 2 [3]): > 10 µM
IC50 (Histone deacetylase 3): > 10 µM
IC50 [4]: > 10 µM

C[C@@H]1CN(Cc2ccc(C(=O)NO)cc2)C[C@H]1c1nc2c(cnn2C2CCCC2)c(=O)[nH]1
IC50 (Histone deacetylase 1 [5]): 0.593 µM
IC50 (Histone deacetylase 2 [6]): 3.53 µM
IC50 [7]: 0.04 µM
IC50 [8]: > 10 µM
IC50 [9]: 0.107 µM
